# According to the supplement of paper PMC8837787:
# System: Saccharomyces cerevisiae ABC16-Green Monster
# Details: 18 h; 30 °C; YPD
# Method: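 Growth inhibition of the drug-sensitive S. cerevisiae ABC16-Green Monster strain (16 ABC transporters deleted) in YPD at 30 °C for 18 h. […] dilution series […] in biological replicates; IC50 from OD600 (18 h minus 0 h) fitted by variable-slope nonlinear regression in GraphPad Prism. Library compounds were first screened at 150 µM, and only those with at least 70% inhibition went to dose-response; the rest are marked inactive.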
row,SMILES,IC50 growth inhibition [µM]
1,Cc1cc(C)nc(-n2nc(C)cc2Nc2ccccc2)n1,42.1
2,COC1CC2CCC(C)C(O)(O2)C(=O)C(=O)N2CCCCC2C(=O)OC(C(C)CC2CCC(O)C(OC)C2)CC(=O)C(C)C=C(C)C(O)C(OC)C(=O)C(C)CC(C)C=CC=CC=C1C (configuration not stated) [Rapamycin],0.727
3,CCC(=C(c1ccccc1)c1ccc(OCCN(C)C)cc1)c1ccccc1 [Tamoxifen],3.13
4,CC(C)Sc1cccc(C(=O)Nc2nnc(-c3ccnn3C(C)C)o2)c1 [CBR113],2.48
5,COc1cc(-c2cc(-c3ccc(S(C)(=O)=O)cc3)cnc2N)ccc1O,22
6,Cn1ncc2c(N3CCOCC3)nc(NCCc3c[nH]c4ccccc34)nc21,69.3
7,CNC1CCC(c2ccc(Cl)c(Cl)c2)c2ccccc21.Cl (configuration not stated) [Sertraline],13.4
8,COc1ccccc1NC(=O)c1ccc(NC(=O)Cn2ncc(Cl)c(Cl)c2=O)cc1,0.238
9,CNCCC(Oc1ccc(C(F)(F)F)cc1)c1ccccc1 (configuration not stated),48.3
10,O=CN(O)CCCP(=O)(O)O [Fosmidomycin],> 75
11,Cl.c1ccc(C2CCCC2NC2=NCCCCCCCCCCC2)cc1 (configuration not stated) [MDL-12],54.6
12,CNc1ncc2cc(-c3cc(NC(=O)NCCC(C)(C)C)c(F)cc3C)c(C)nc2n1 [DP-4978],> 150
13,NC(=O)[C@@H](CC1CC1)[C@@H](CCC(F)(F)F)C(=O)N[C@H]1N=C(c2ccccc2)c2cccc(F)c2NC1=O,2.06
14,O=C1C=CC(=O)N1c1ccc(C2CCCCC2)cc1,1.69
15,O=c1c(Cl)c(Cl)cnn1-c1nc2ccccc2[nH]1,13.2
16,COC(=O)Nc1nc2ccc(C(=O)c3ccccc3)cc2[nH]1 [Mebendazole],5.42
17,O=C1Nc2ccc(F)cc2/C1=N/NC(=S)NC1CC2C=CC1C2 (configuration not stated),55.9
18,Clc1cccc(Nc2ncc(-c3ccc4c(c3)OCCCO4)s2)c1,15.4
19,Cc1cc(C(C)(C)CC(C)(C)C)ccc1OCCOCC[N+](C)(C)Cc1ccccc1 [KAAA726],3.74
20,Cc1cc(Nc2nc(N[C@@H](C)c3ncc(F)cn3)ncc2Cl)n[nH]1 [AZD-1480],58.6
21,COC(=O)C1=C(C)NC(C)=C(C(=O)OC(C)C)C1c1cccc2nonc12 (configuration not stated),65.4

row,SMILES,IC50 growth inhibition [µM]
1,COc1ccc(Nc2nc(NCc3ccccc3)c3ccccc3n2)cc1,7.72
2,CC(C)(C)c1ccc2c(c1)CN(Cc1ccc(Cl)cc1)CO2,14.3
3,CCCOC(=O)C1=C(C)NC2=C(C(=O)CC(c3ccc(OC)c(OC)c3)C2)C1c1ccc(Cl)cc1Cl (configuration not stated) [GNF-Pf-5672],5.08
4,O[C@@H](c1cc(C(F)(F)F)nc2c(C(F)(F)F)cccc12)[C@H]1CCCCN1,45.6
5,OC1=C2C(=Nc3ccccc3SC2c2cccs2)c2ccccc21 (configuration not stated) [GNF-Pf-5669],> 150
6,Cc1cc(Cl)ccc1OCc1nnc(-c2ccccn2)[nH]1,20.7
7,CCOc1cccc2sc(N(Cc3cccnc3)C(=O)C3CCCCC3)nc12,25.7
8,N=C(N)c1ccc(OCCCCCOc2ccc(C(=N)N)cc2)cc1 [Pentamidine],85.9
9,c1ccc(-c2nc(NC3CCCCC3)cc(C3CC3)n2)nc1,44.5
10,Cc1c(N)nc(C(CC(N)=O)NCC(N)C(N)=O)nc1C(=O)NC(C(=O)NC(C)C(O)C(C)C(=O)NC(C(=O)NCCc1nc(-c2nc(C(=O)NCCC[S+](C)C)cs2)cs1)C(C)O)C(OC1OC(CO)C(O)C(O)C1OC1OC(CO)C(O)C(OC(N)=O)C1O)c1cnc[nH]1 (configuration not stated) [Bleomycin (JP1)],> 75
11,O=C(Nc1ccc(N2CCNCC2)cc1)c1ccn2ncc(-c3cccc(Cl)c3)c2n1,8
12,CC[C@@H]([C@H](C)O)n1ncn(-c2ccc(N3CCN(c4ccc(OC[C@@H]5CO[C@@](Cn6cncn6)(c6ccc(F)cc6F)C5)cc4)CC3)cc2)c1=O,50
13,CCOc1ccc(C(=O)CN(C#N)C(=O)c2ccccc2)cc1,25
14,Clc1ccc(Cl)c(CO[C@H]2CCCC[C@@H]2n2ccnc2)c1,68.6
15,Cn1ncc2c(NCc3ccc(-c4ccc(Cl)cc4)o3)ncnc21,61.9
16,O=C(Nc1nc(-c2ccccn2)cs1)c1cncn1-c1ccccc1,26.2
17,Cc1cccc(-n2ncc3c(=O)[nH]c(-n4nc(C)cc4NC(=O)c4cc5ccccc5o4)nc32)c1,7.06
18,Cc1ccc(N/N=C/c2c3ccccc3cc3ccccc23)cc1Cl,14
19,Cc1c(C)n(CCCN(C)C)c2ncn3nc(COc4ccccc4)nc3c12,39.6
20,Cc1nn(C(C)(C)C)c(C)c1/C=N/OC(=O)Nc1ccc(Cl)cc1,39.1
21,Cc1nc(NC(=O)c2csc(NC3CCCC3)n2)sc1C,12.4

row,SMILES,IC50 growth inhibition [µM]
1,CCCCCC(=O)N[C@H](C(=O)N[C@@H](CCS(C)(=O)=O)C(=O)N[C@@H](CC(C)C)C(=O)[C@@]1(C)CO1)C(C)C [Carmaphycin B],24.8
2,Cc1nc2ncnn2c(N2CCc3ccccc3C2)c1Cl,84.8
3,FC(F)(F)c1ccc(N(c2cccnc2)C2CCN(c3ccc(C(F)(F)F)cn3)CC2)cc1,40
4,CCOC(=O)c1c(NC(=O)c2c(F)c(F)c(F)c(F)c2F)sc(C(N)=O)c1C,47.8
5,CN1C=C/C(=C/c2ccc3ccccc3[n+]2C)c2ccccc21,51.4
6,c1ccc(-c2cn3nc(NCc4ccccc4CN4CCOCC4)sc3n2)cc1,106
7,CC(C)CC(NC(=O)C(Cc1ccccc1)NC(=O)c1cnccn1)B(O)O (configuration not stated) [Bortezomib],46.2
8,CC(C)=CCC/C(C)=C\CNCCNC1C2CC3CC(C2)CC1C3 (configuration not stated),18.2
9,O=C(Nc1ccc2oc(-c3cccc4ccccc34)nc2c1)c1ccc([N+](=O)[O-])o1 [GNF-PF-2740],0.941
10,COc1ccc(C2c3ccc4ccccc4c3Oc3ncn(CCCN(C)C)c(=N)c32)cc1 (configuration not stated),28.9
11,Brc1ccc(Nc2nc3ccccc3nc2Nc2ccc(Br)cc2)cc1,2.31
12,CCC(=C(c1ccc(O)cc1)c1ccc(OCCNC)cc1)c1ccccc1 [Endoxifen],8.3
13,CCS(=O)(=O)c1ncc(Cl)c(C(=O)Nc2ccc(C(=O)OC)cc2)n1,17.4
14,O=C(CCCCCCC(=O)Nc1ccccc1)NO [Vorinostat],> 75
15,CC1(C)C=Cc2cc(C(=N)NOC(=O)c3ccccc3)ccc2O1,4.33
16,CCC(=C(CC)c1ccc(O)cc1)c1ccc(O)cc1 [Diethylstilbestrol],5.86
17,COc1ccc(-c2onc(C(F)(F)F)c2-c2ccc(Cl)cc2)c(O)c1,48.6
18,CCCn1c(NC(=O)c2ccc3ccccc3n2)nc2ccccc21,40
19,Cc1noc(C)c1C(=O)N1CCCC(c2[nH]c3c(C)cccc3c2-c2ccncc2)C1 (configuration not stated),20.8
20,NC(CC(=O)c1ccc(Cl)cc1Cl)C(Cl)(Cl)Cl (configuration not stated),46.4
21,CCS(=O)(=O)N1CCN(c2ccc(Nc3ncc(C(N)=O)c(NC4CC4)n3)cc2)CC1 [Cerdulatinib],8.06

row,SMILES,IC50 growth inhibition [µM]
1,O=C(O)c1ccc2c(c1)nc(Nc1cccc(Cl)c1)c1ccncc12 [Silmitasertib],> 75
2,OC(Cn1cncn1)(Cn1cncn1)c1ccc(F)cc1F [Fluconazole],3.14
3,CCCCN(CCCC)CC(O)c1cc(Cl)cc2c1-c1ccc(Cl)cc1C2=Cc1ccc(Cl)cc1 (configuration not stated) [Lumefantrine],> 75
4,O=C1NCN(c2ccccc2)C12CCN(CCCC(c1ccc(F)cc1)c1ccc(F)cc1)CC2 [Fluspirilene],23.3
5,Br.Cc1ccnc(Nc2nc(-c3ccccn3)cs2)c1 [GNF-Pf-4739],4.6
6,COc1cc(CNC(=O)CCCCC=CC(C)C)ccc1O [Capsaicin],> 150
7,CC(=O)N(C1=C(N2CCOCC2)C(=O)c2ccccc2C1=O)c1ccc(I)cc1 [GNF-Pf-3703],7.31
8,C=CCc1c(C)nc2c(-c3ccccc3)cnn2c1N1CCN(CCO)CC1,62.8
9,O=C(Nc1cccc(C(F)(F)F)c1)Nc1ncc([N+](=O)[O-])s1,52.4
10,Cc1ccc(CNc2ncnc3sccc23)cc1,13.4
11,Cc1nc([P+](c2ccccc2)(c2ccccc2)c2ccccc2)c(N2CCCCC2)o1 [GNF-Pf-445],9.44
12,O=P(O)(O)C(O)(Cn1ccnc1)P(=O)(O)O [Zoledronate],> 75
13,FC(F)c1nc2ccccc2n1-c1nc(N2CCOCC2)nc(N2CCOCC2)n1 [ZSTK-474],52
14,c1csc(-c2cnc3sc(NCC4CCOCC4)nn23)c1,2.98
15,Nc1nc(F)nc2c1ncn2C1OC(CO)C(O)C1O (configuration not stated) [Fludarabine],> 75
16,CS(=O)(=O)CCNCc1ccc(-c2ccc3ncnc(Nc4ccc(OCc5cccc(F)c5)c(Cl)c4)c3c2)o1 [lapatinib],5.96
17,CCC(C)CC(C)CCCCCCCCC(=O)NC1CC(O)C(NCCN)NC(=O)C2C(O)CCN2C(=O)C(C(O)CCN)NC(=O)C(C(O)C(O)c2ccc(O)cc2)NC(=O)C2CC(O)CN2C(=O)C(C(C)O)NC1=O (configuration not stated) [Caspofungin],0.0305
18,O=C1N=c2ccccc2=C1NNC(=S)N1CCOCC1,16.4
19,Nc1ccn(C2OC(CO)C(O)C2(F)F)c(=O)n1 (configuration not stated) [Gemcitabine],> 75
